Laboratory results from US20040235086A1, “Detection of cellular contaminants in samples of non-living material” (priority 2001, published 2004).

Tests used:
[1] = tested on: Hepatocyte cells; assay: Microcalorimetric detection of heat production on uncoupling of oxidative phosphorylation in hepatocytes; format: cell-based
Method: Hepatocyte cells were grown on 37 degrees Celsius with 5% CO2, Rinsed with Versene, then loosened with EDTA-trypsine and washed with PBS. Concentration was 1,88. 10e7 cells/ml or about 28 000 cells in a well.
The uncoupler CCCF was dissolved in DMSO to a stock concentration of 100 mM, the diluted to 10 mM again in DMSO, and a final working concentration of 400 μM was diluted in H2O.
A sample of hepatocytes was introduced in the adjoining recipients (hereinafter referred to as top and bottom well) of a microcalorimeter. The thermopile, which is located between the two recipients allows the measurement of a minute temperature difference between the samples in each recipient by measuring a voltage difference. Sensitivity was determined to be 15 mV/K (10.7 V/W). The following procedure was used:
adding of 1.5 μl of hepatocyte solution was added to the top and bottom well of the microcalorimeter
0.5 μl of a 100 μM solution of uncoupler was added to the bottom well, while the same volume of the buffer solution was added to the top well
At its maximum (reached after 10 min), the voltage difference between the two wells was recorded. From this value, the temperature difference and the heat production difference could be determined.

[2] = tested on: Escherichia coli bacteria
Method: The presence of living cells, including bacterial cells, in a sample can be detected by addition of hydrogen peroxide which will be degraded by catalase activity present in the cells, which causes heat production.
Escherichia coli bacteria were grown on 37° Celsius in Liquid Broth. Samples of bacteria are taken when growth is in the log fase and is estimated to be around 4.10e8 bacteria/ml, which corresponds to around 600 000 bacteria per well.
A 30% (w/w) hydrogen peroxide solution from Sigma was used directly.
Measurements were performed using a microcalorimeter. The top well was provided with 1.5 μl of the bacterial solution in LB, while the bottom well contained 1.5 μl LB only.
When a steady baseline was obtained (10 min) 0.5 μl of the hydrogen peroxide solution was added to each of the wells.

Structure (SMILES) | maximum voltage difference between the two wells ([1]; 0.5 μl of 100 μM uncoupler solution added to 1.5 μl hepatocyte solution (about 28 000 cells/well), maximum reached after 10 min, vs buffer well) [μV] | heat production difference per cell ([1]; hepatocytes, based on number of cells added to each well) [nW] | temperature difference (voltage difference divided by sensitivity of the microcalorimeter) ([1]; hepatocytes, uncoupler well vs buffer well, sensitivity 15 mV/K) [mK] | maximum temperature difference ([2]; 0.5 μl of 30% (w/w) hydrogen peroxide added to 1.5 μl E. coli in LB (around 600 000 bacteria per well) vs LB only) [mK] | total enthalpy change ([2]; calculated from Tmax=ΔH/2C, heat capacity 10 mJ/K after addition of hydrogen peroxide) [mJ]
N#CC(C#N)=NNc1cccc(Cl)c1 [CCCF, carbonylcyanide-3-chlorophenylhydrazone] | 800 | 3 | 50 | – | –
OO [hydrogen peroxide] | – | – | – | 400 | 80
